Values of other authors as cited in patent publication US20120087963A1, “DISINFECTANT COMPOSITION COMPRISING A BIGUANIDE COMPOUND” (BIO TECHNICS LIMITED, priority 2009, published 2012).

System: bacteria
Details: typical, of the order of

## polyaminopropyl biguanide [PAPB]
  Bactericidal concentration: ~10 mg/L
